Read-outs that look alike come from different tables or passages of the source. A value given as a limit tells only on which side of the number the result lay.

For orientation: EC50 means the concentration at which the effect is half-maximal.

The experiment deals with T1, CFTR (Homo sapiens, UniProt P13569, DEL508-508).
T1 construct: endogenous in cells; host or cells: primary human bronchial epithelial cells from CF subjects (F508del/MF-HBE), differentiated at air-liquid interface
The experiment in a line: HBE assay: Ussing chamber assay of CFTR-mediated short-circuit currents. In kind it is cell-based. Put shortly: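 CFTR-mediated Isc (μA/cm²) equals the peak response to apical 20 μM forskolin minus the residual after a 20 μM each BPO/GlyH-101/CFTR inhibitor 172 cocktail, recorded in Ussing chambers at Vhold 0 mV, 37 °C, pH 7.4, with 30 μM apical amiloride. Cells were F508del/MF HBE cultures preincubated 18-24 h with corrector (concentration range or 10 μM) plus 1 μM ivacaftor in 20% human serum.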

The mark [1] stands for this setting: Table 12, read-out: HBE Max Activity (%).
Where [2] appears, read: Table 10, read-out: HBE Max activity (%).
[3] abbreviates: Table 13, read-out: HBE Max Activity (%).
[4] abbreviates: HBE assay, read-out: HBE Max activity (%).
The mark [5] stands for this setting: Table 13, at 10 μM, read-out: HBE Activity at 10 μM (%).
Where [6] appears, read: Table 11, read-out: HBE Max Activity (%).
The mark [7] stands for this setting: Table 12, at 10 μM, read-out: HBE Activity at 10 μM (%).

T1 sequence (P13569 with tags, fused parts or gaps DEL508-508): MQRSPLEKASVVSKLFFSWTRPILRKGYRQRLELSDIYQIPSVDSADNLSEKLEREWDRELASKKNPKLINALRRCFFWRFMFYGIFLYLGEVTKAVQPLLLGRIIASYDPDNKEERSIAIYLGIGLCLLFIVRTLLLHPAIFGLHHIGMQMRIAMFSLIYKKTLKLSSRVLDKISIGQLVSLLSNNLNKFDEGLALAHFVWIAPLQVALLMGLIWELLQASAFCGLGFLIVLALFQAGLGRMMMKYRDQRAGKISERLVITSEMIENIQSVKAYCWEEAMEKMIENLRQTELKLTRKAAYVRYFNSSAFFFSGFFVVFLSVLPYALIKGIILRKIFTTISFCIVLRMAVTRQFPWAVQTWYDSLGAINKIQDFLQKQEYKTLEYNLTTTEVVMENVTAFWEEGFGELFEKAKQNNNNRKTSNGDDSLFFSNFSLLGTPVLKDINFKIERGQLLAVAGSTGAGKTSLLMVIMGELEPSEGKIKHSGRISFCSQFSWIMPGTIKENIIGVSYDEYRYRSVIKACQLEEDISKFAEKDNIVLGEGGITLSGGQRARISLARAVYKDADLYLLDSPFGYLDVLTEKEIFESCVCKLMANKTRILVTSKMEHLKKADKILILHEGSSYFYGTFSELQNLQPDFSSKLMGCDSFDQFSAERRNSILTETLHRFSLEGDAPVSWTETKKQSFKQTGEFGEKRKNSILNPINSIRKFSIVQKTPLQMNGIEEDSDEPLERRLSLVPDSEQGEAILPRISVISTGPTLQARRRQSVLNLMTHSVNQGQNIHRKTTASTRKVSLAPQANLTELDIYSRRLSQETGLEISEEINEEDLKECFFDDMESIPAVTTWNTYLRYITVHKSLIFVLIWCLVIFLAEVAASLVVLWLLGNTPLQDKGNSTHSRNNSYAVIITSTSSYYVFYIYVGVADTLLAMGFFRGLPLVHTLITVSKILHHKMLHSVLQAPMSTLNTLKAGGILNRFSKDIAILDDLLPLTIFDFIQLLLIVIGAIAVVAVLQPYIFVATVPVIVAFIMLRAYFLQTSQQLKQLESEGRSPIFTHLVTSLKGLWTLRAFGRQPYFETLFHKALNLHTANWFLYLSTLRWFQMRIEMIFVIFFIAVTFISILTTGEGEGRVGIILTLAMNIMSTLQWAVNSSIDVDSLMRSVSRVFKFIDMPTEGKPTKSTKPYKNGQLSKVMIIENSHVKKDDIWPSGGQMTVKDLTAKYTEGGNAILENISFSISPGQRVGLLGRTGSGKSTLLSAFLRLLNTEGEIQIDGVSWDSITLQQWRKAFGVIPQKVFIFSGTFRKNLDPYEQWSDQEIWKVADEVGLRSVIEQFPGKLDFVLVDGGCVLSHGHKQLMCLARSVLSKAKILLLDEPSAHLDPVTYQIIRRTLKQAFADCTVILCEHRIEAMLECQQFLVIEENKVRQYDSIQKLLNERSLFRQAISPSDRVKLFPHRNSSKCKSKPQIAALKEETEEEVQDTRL

For the molecule `Cc1cccc(C)c1-c1cc2nc(n1)NS(=O)(=O)c1cccc(c1)C(=O)N(Cc1ncc(N3CCC(C)(C)CC3)cn1)[C@H](CC1CC1)CO2` [Compound 462], where the note is “Table 12, read-out: HBE EC50”, the EC50 is under 1 µM. In addition, the Emax under setting [1] is over 60%. On to `COc1cccnc1CN1C(=O)c2cccc(c2)S(=O)(=O)Nc2nc(cc(-c3c(C)cccc3C)n2)OC[C@H]1CC(C)(C)C` [Compound 382], for which the EC50 (Table 10, read-out: HBE EC50) was under 1 µM. Under setting [2], the Emax is over 60%.

`Cc1cccc(C)c1-c1cc2nc(n1)NS(=O)(=O)c1cccc(c1)C(=O)N(Cc1cccc(N(CCOC(C)C)C(C)C)n1)[C@H](CC(C)(C)C)CO2` [Compound 236]: the EC50 (Table 13, read-out: HBE EC50) was in the range of 1 to 3 µM. Besides, the Emax under setting [3] is over 60%. `Cc1cccc(C)c1-c1cc2nc(n1)NS(=O)(=O)c1cccc(c1)C(=O)N(Cc1cccc(NC3CCOC3)n1)[C@H](CC(C)(C)C)CO2` (stereo partly shown) [Compound 1352]: the EC50 (HBE assay, read-out: HBE EC50) was under 1 µM. The Emax under setting [4] is over 60%. Regarding `Cc1cccc(C)c1-c1cc2nc(n1)NS(=O)(=O)c1cccc(c1)C(=O)N(Cc1ccc(N3CCC(C(=O)O)CC3)cn1)[C@H](CC(C)(C)C)CO2` [Compound 251], the activation at 10 µM under setting [5] lay in the range of 30 to 60%. The same measure, in the same setting: as for `Cc1cccc(C)c1-c1cc2nc(n1)NS(=O)(=O)c1cccc(c1)C(=O)N(CC(=O)N1CCc3c(Cl)nc(C(F)(F)F)nc3C1)[C@H](CC(C)(C)C)CO2` [Compound 206], the figure is 30 to 60%. `Cc1cccc(C)c1-c1cc2nc(n1)NS(=O)(=O)c1cccc(c1)C(=O)N(Cc1ncc(N3CCC(C)(C)C3)cc1C(F)(F)F)[C@H](CC(C)(C)C)CO2` [Compound 1118]: the EC50 (Table 13, read-out: HBE EC50) is under 1 µM. In addition, under setting [3], the Emax was over 60%. With `Cc1cccc(C)c1-c1cc2nc(n1)NS(=O)(=O)c1cccc(c1)C(=O)N(Cc1ncc(OC3CC(C)(C)C3)cn1)[C@H](CC(C)(C)C)CO2` [Compound 1422], the EC50 (HBE assay, read-out: HBE EC50) is under 1 µM. Moreover, under setting [4], the Emax is over 60%. With `Cc1cccc(C)c1-c1cc2nc(n1)NS(=O)(=O)c1cccc(c1)C(=O)N(Cc1cccc(N(C)C(C)C)n1)[C@H](CC(C)(C)C)CO2` [Compound 737], under “Table 11, read-out: HBE EC50”, the EC50 was under 1 µM. In addition, the Emax under setting [6] was over 60%. In the case of `Cc1cccc(C)c1-c1cc2nc(n1)NS(=O)(=O)c1cccc(c1)C(=O)N(Cc1cncc(N3CCC[C@H]3COC(C)C)n1)[C@H](CC(C)(C)C)CO2` [Compound 1494], for the setting “HBE assay, read-out: HBE EC50”, the EC50 is under 1 µM. Moreover, the Emax under setting [4] was over 60%.

For the molecule `Cc1cccc(C)c1-c1cc2nc(n1)NS(=O)(=O)c1cccc(c1)C(=O)N(Cc1ncc(C3CC4(COC4)C3)cn1)[C@H](CC(C)(C)C)CO2` [Compound 161], where the note is “Table 13, read-out: HBE EC50”, the EC50 was under 1 µM. Further, the Emax under setting [3] was over 60%. Take `Cc1cccc(C)c1-c1cc2nc(n1)NS(=O)(=O)c1cccc(c1)C(=O)N(Cc1cncc(N3CCOCC3)n1)[C@H](CC(C)(C)C)CO2` [Compound 896]: the concentration giving a half-maximal response (EC50) (Table 11, read-out: HBE EC50) was under 1 µM. Besides, the Emax under setting [6] was over 60%. Taken in the same sequence, the figures for `COCCN(C)c1ccnc(CN2C(=O)c3cccc(c3)S(=O)(=O)Nc3nc(cc(-c4c(C)cccc4C)n3)OC[C@H]2CC(C)(C)C)n1` [Compound 657] were under 1 µM and over 60%. Take `Cc1cccc(C)c1-c1cc2nc(n1)NS(=O)(=O)c1cccc(c1)C(=O)N(Cc1ncc(N3CC4(CCC4)C3)cn1)[C@H](CC(C)(C)C)CO2` [Compound 155, (11R)-12-[[5-(2-Azaspiro[3.3]heptan-2-yl)pyrimidin-2-yl]methyl]-6-(2,6-dimethylphenyl)-11-(2,2-dimethylpropyl)-2,2-dioxo-9-oxa-2λ^6-thia-3,5,12,19-tetrazatricyclo[12.3.1.14,8]nonadeca-1(18),4(19),5,7,14,16-hexaen-13-one]: the EC50 (Table 12, read-out: HBE EC50) was under 1 µM. The Emax under setting [1] is over 60%.

As for `Cc1cccc(C)c1-c1cc2nc(n1)NS(=O)(=O)c1cccc(c1)C(=O)N(Cc1ccc(N(C)C)nc1)[C@H](CC(C)(C)C)CO2` [Compound 529], the EC50 (Table 10, read-out: HBE EC50) is under 1 µM. Moreover, under setting [2], the Emax was over 60%.

In the case of `COCCN(CCOC)c1cccc(CN2C(=O)c3cccc(c3)S(=O)(=O)Nc3nc(cc(-c4c(C)cccc4C)n3)OC[C@H]2CC(C)(C)C)n1` [Compound 128, (11R)-12-[[6-[Bis(2-methoxyethyl)amino]-2-pyridyl]methyl]-6-(2,6-dimethylphenyl)-11-(2,2-dimethylpropyl)-2,2-dioxo-9-oxa-2λ^6-thia-3,5,12,19-tetrazatricyclo[12.3.1.14,8]nonadeca-1(18),4(19),5,7,14,16-hexaen-13-one], the EC50 (Table 10, read-out: HBE EC50) was under 1 µM. The activation at 10 µM (read-out: HBE Activity at 10 μM (%)) is over 60%. Moreover, the Emax (read-out: HBE Max activity (%)) is over 60%.

As to `Cc1ccnc(CN2C(=O)c3cccc(c3)S(=O)(=O)Nc3nc(cc(-c4c(C)cccc4C)n3)OC[C@H]2CC(C)(C)C)c1` [Compound 1070], the EC50 (Table 11, read-out: HBE EC50) was under 1 µM. Moreover, the Emax under setting [6] was over 60%. In the case of `CC[C@H](C)[C@@H]1COc2cc(-c3c(C)cccc3C)nc(n2)NS(=O)(=O)c2cccc(c2)C(=O)N1Cc1ncc(OC2CCC2)cn1` [Compound 1472], the activation at 10 µM (HBE assay, 10 μM, read-out: HBE Activity at 10 μM (%)) is over 60%. Also, where the note is “HBE assay, read-out: HBE EC50”, the EC50 is under 1 µM. Also, under setting [4], the Emax is over 60%. On to `Cc1cccc(C)c1-c1cc2nc(n1)NS(=O)(=O)c1cccc(c1)C(=O)N(CC1CCC(C)(C)O1)[C@H](CC(C)(C)C)CO2` (single isomer, unassigned) [Compound 33], for which, under “Table 11, at 10 μM, read-out: HBE Activity at 10 μM (%)”, the activation at 10 µM is over 60%. As to `Cc1cccc(C)c1-c1cc2nc(n1)NS(=O)(=O)c1cccc(c1)C(=O)N(Cc1ccn(C)n1)[C@H](CC(C)(C)C)CO2` [Compound 825], the activation at 10 µM (Table 10, at 10 μM, read-out: HBE activity at 10 (μM) (%)) is over 60%.

Take `Cc1cccc(C)c1-c1cc2nc(n1)NS(=O)(=O)c1cccc(c1)C(=O)N(Cc1cc(C(C)(C)O)ccn1)[C@H](CC(C)(C)C)CO2` [Compound 812]: the concentration giving a half-maximal response (EC50) (Table 11, read-out: HBE EC50) was under 1 µM. The Emax under setting [6] is over 60%.

Take `Cc1cccc(C)c1-c1cc2nc(n1)NS(=O)(=O)c1cccc(c1)C(=O)N(Cc1ncc(N3CC4(C3)CC(C)(C)C4)cn1)[C@H](CC(C)(C)C)CO2` [Compound 869]: the EC50 (Table 13, read-out: HBE EC50) is under 1 µM. Also, under setting [3], the Emax was over 60%.

Consider `Cc1cccc(C)c1-c1cc2nc(n1)NS(=O)(=O)c1cccc(c1)C(=O)N(Cc1ccc(N3CCOCC3)cc1)[C@H](CC(C)(C)C)CO2` [Compound 498], for which the EC50 (Table 10, read-out: HBE EC50) is under 1 µM. For the same molecule, under setting [2], the Emax is over 60%. On to `Cc1cccc(C)c1-c1cc2nc(n1)NS(=O)(=O)c1cccc(c1)C(=O)N(Cc1cnc(N3CCC(C)(C)C3)cn1)[C@H](CC(C)(C)C)CO2` [Compound 607], for which the EC50 (Table 11, read-out: HBE EC50) was under 1 µM. In addition, the Emax under setting [6] was over 60%. Regarding `Cc1cccc(C)c1-c1cc2nc(n1)NS(=O)(=O)c1cccc(c1)C(=O)N(Cc1ccc(C3CCCCC3)nn1)[C@H](CC(C)(C)C)CO2` [Compound 233], the activation at 10 µM under setting [7] was over 600%. Turning to `Cc1cccc(C)c1-c1cc2nc(n1)NS(=O)(=O)c1cccc(c1)C(=O)N(Cc1ncc(OC(C)C)cn1)[C@H](CC(C)(C)C(F)(F)F)CO2` [Compound 1121], the concentration giving a half-maximal response (EC50) (Table 13, read-out: HBE EC50) was under 1 µM. The Emax under setting [3] was over 60%. `COCCN(CC(C)(C)C)c1cncc(CN2C(=O)c3cccc(c3)S(=O)(=O)Nc3nc(cc(-c4c(C)cccc4C)n3)OC[C@H]2CC(C)(C)C)n1` [Compound 1367]: the EC50 (HBE assay, read-out: HBE EC50) was under 1 µM. For the same molecule, under setting [4], the Emax is over 60%. Regarding `Cc1cccc(C)c1-c1cc2nc(n1)NS(=O)(=O)c1cccc(c1)C(=O)N(Cc1ncc(N3CC4CC(C4)C3)cn1)[C@H](CC(C)(C)C)CO2` [Compound 613], the EC50 (HBE EC50 (μM), Table 11) was under 1 µM. In addition, the Emax under setting [6] was over 60%. For the molecule `Cc1cccc(C)c1-c1cc2cc(n1)NS(=O)(=O)c1cccc(c1)C(=O)N(Cc1ncc(CC(C)C)cn1)[C@H](CC(C)(C)C)CO2` [Compound 523], the activation at 10 µM under setting [7] is over 600%. As for `Cc1cccc(C)c1-c1cc2nc(n1)NS(=O)(=O)c1cccc(c1)C(=O)N(Cc1ncc(C(C)(C)C)cn1)[C@H](CC(C)(C)C)CO2` [Compound 815], the EC50 (Table 11, read-out: HBE EC50) is under 1 µM. Besides, under setting [6], the Emax was over 60%. For `Cc1cccc(C)c1-c1cc2nc(n1)NS(=O)(=O)c1cccc(c1)C(=O)N(CC1CC3(C1)CC(NC(=O)OC(C)C)C3)[C@H](CC(C)(C)C)CO2` (stereo partly shown) [Compound 1003], the activation at 10 µM under setting [5] is over 600%. Take `Cc1cc(C)nc(CN2C(=O)c3cccc(c3)S(=O)(=O)Nc3nc(cc(-c4c(C)cccc4C)n3)OC[C@H]2CC(C)(C)C)n1` [Compound 1009]: the EC50 (Table 12, read-out: HBE EC50) was under 1 µM. Further, the Emax under setting [1] was over 60%.

As to `Cc1cccc(C)c1-c1cc2nc(n1)NS(=O)(=O)c1cccc(c1)C(=O)N(Cc1ncc(N3CC[C@](C)(O)C3)cn1)[C@H](CC(C)(C)C)CO2` [Compound 541], where the note is “Table 12, read-out: HBE EC50”, the EC50 was under 1 µM. For the same molecule, under setting [1], the Emax is over 60%. For the molecule `Cc1cccc(C)c1-c1cc2nc(n1)NS(=O)(=O)c1cccc(c1)C(=O)N(Cc1cncc(C3CCCCC3)c1)[C@H](CC(C)(C)C)CO2` [Compound 286], the EC50 (Table 12, read-out: HBE EC50) was under 1 µM. For the same molecule, the Emax under setting [1] is over 60%.

Regarding `Cc1cccc(C)c1-c1cc2nc(n1)NS(=O)(=O)c1cccc(c1)C(=O)N(Cc1cccc(NC34CC(C3)C4)n1)[C@H](CC(C)(C)C)CO2` [Compound 440], the EC50 (Table 12, read-out: HBE EC50) was under 1 µM. Under setting [1], the Emax was over 60%. As to `Cc1cccc(C)c1-c1cc2nc(n1)NS(=O)(=O)c1cccc(c1)C(=O)N(Cc1cccc(Cc3nccs3)c1)[C@H](CC(C)(C)C)CO2` [Compound 295], the EC50 (Table 10, read-out: HBE EC50) was under 1 µM. Besides, the Emax under setting [2] is over 60%.

The record behind these values is patent US20240150377A1, “MODULATORS OF CYSTIC FIBROSIS TRANSMEMBRANE CONDUCTANCE REGULATOR” (VERTEX PHARMACEUTICALS INCORPORATED, priority 2020, published 2024).
